“Also recorded” adds a separate entry of the source.
Assays:
[1] = literature values, cell line not given; read-out: IC50 documented for reference drugs; cited from earlier work
[2] = Microscopy of precipitation/recrystallization in DMEM + 10% FBS or PBS, no cells; format: physicochemical; conditions: for Solubility in DMSO (in words): 500 μg/mL at most 1% DMSO not reachable; for Recrystallization of API added from DMSO into DMEM + 10% FBS (microscopy): 1% DMSO, 100 μg/mL abiraterone acetate and telmisartan, 500 μg/mL others, no cells
macrophages J774A.1 = experiment: Microscopy of samples incubated with macrophages; format: cell-based, mouse; conditions: for Recrystallization/precipitation of API added from DMSO, tested with J774A.1 (microscopy): 1% DMSO, 100 or 500 μg/mL, DMEM + 10% FBS
Protocol: For the purpose of the crystallization form DMSO solution study, the J774A.1 cells in the DMEM+10% FBS+1% AA medium were inoculated in a 96 well-plate with a glass-bottom (Cellvis, P96-1.5H-N) with a density of 2×10^4 cells/well and left to adhere overnight. Then, the medium was removed by aspiration, and nanocrystal samples pre-diluted in the fresh medium were added (from 500 μg/mL decreasing in half concentration trend; 90 μL/well). In some cases (abiraterone acetate, telmisartan), it was not possible to reach 500 μg/mL API concentration together with total DMSO content of maximum 1% (1% DMSO is top limit standard in biochemical testing considering the DMSO toxicity and effect on the cell viability and performance) and therefore these substances were tested at 100 μg/mL concentration. Here the great potential of nanocrystals is clearly presented, since the nanocrystal samples were possible to be prepared and tested at 500 μg/mL even in cases where the DMSO solvents would not be accepted for in vitro testing. If possible, all samples were tested at concentration 500 μg/mL (from nanocrystals or from DMSO stock solutions) and incubated in the well-plate for 18 h.

Row | Compound | IC50 [1] [µM] | Recrystallization of API added from DMSO into DMEM + 10% FBS (microscopy) [2] | also measured
1 | O=c1[nH]cc(F)c(=O)[nH]1 [5-fluorouracil] | 39 | – | –
2 | CC(=O)O[C@H]1CC[C@@]2(C)C(=CC[C@@H]3[C@@H]2CC[C@]2(C)C(c4cccnc4)=CC[C@@H]32)C1 [Abiraterone acetate] | – | formation of both new crystals and solid amorphous phase occurs | Solubility in DMSO (in words) [2]: low solubility
3 | CCOc1nc2cccc(C(=O)OC(C)OC(=O)OC3CCCCC3)c2n1Cc1ccc(-c2ccccc2-c2nnn[nH]2)cc1 (centres unmarked) [Candesartan cilexetil] | – | did not form macroscopic crystals | –
4 | COc1cc(/C=C/C(=O)CC(=O)/C=C/c2ccc(O)c(OC)c2)ccc1O [Curcumin] | – | – | Recrystallization/precipitation of API added from DMSO, tested with J774A.1 (microscopy) (macrophages J774A.1): most significant recrystallization/precipitation; also recorded: precipitation/recrystallization from DMSO occurred and was well detectable
5 | CC(C)(C)c1cc(C(C)(C)C)c(NC(=O)c2c[nH]c3ccccc3c2=O)cc1O [Ivacaftor] | – | – | Recrystallization/precipitation of API added from DMSO, tested with J774A.1 (microscopy) (macrophages J774A.1): most significant recrystallization/precipitation; also recorded: precipitation/recrystallization from DMSO occurred and was well detectable; Effect on J774A.1 cells, API added as DMSO solution (macrophages J774A.1; 8-125 μg/mL): causes cell death (membrane blobbing)
6 | COc1cc(C2Oc3cc([C@H]4Oc5cc(O)cc(O)c5C(=O)[C@@H]4O)ccc3OC2CO)ccc1O (some centres unmarked) [Silybinin] | 180 | – | –
7 | CCCc1nc2c(C)cc(-c3nc4ccccc4n3C)cc2n1Cc1ccc(-c2ccccc2C(=O)O)cc1 [Telmisartan] | – | did not form macroscopic crystals | Solubility in DMSO (in words) [2]: low solubility
8 | N.N.[Cl][Pt][Cl] [cisplatin] | 181 | – | –

— patent US20230414502A1, “Method for Preparing an Aqueous Nanocrystalline Suspension Containing Nanocrystals of Pharmaceutically Active Ingredient and a Combination of Stabilizers, Aqueous Nanocrystalline Suspension and Methods of Use Thereof” (Vysoka skola chemicko-technologicka v Praze, priority 2022, published 2023)
